Here are results for eight molecules from patent publication US20190008804A1 (Repros Therapeutics Inc., priority 2016, published 2019).

For series [1], the target named is T1, ERβ (Homo sapiens, UniProt Q92731). Put plainly: ERβ coactivator response. The class given is biochemical. Also on record: concentration or dose not given beside the values.
Target sequence in this assay (Q92731 whole entry): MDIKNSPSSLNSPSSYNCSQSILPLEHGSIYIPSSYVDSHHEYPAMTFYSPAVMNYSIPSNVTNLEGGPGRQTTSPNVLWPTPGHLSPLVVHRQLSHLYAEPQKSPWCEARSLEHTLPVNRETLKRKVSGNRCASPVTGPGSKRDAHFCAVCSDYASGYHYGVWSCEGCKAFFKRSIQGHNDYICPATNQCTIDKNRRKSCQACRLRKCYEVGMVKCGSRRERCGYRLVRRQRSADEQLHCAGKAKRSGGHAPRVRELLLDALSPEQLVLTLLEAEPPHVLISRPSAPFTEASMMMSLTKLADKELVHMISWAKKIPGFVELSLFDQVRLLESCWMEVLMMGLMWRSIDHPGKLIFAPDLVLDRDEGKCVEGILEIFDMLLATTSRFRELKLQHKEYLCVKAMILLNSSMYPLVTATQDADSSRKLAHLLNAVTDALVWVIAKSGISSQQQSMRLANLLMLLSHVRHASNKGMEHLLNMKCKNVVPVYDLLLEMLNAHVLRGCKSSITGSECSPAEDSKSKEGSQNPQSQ
The nature of series [2]: Co-administration of Proellex and Androxal in cycling female baboons, 180 days daily oral. The class given is in vivo. The conditions noted are these: daily oral 180 days, Androxal 25 mg. As to the method:
All treatment groups received daily oral administration of the appropriate capsule(s) for 180 days. Daily oral dosing was started in the luteal phase. […] Daily observations of estrus (heat) were conducted for all groups.

Series [3] can be described thus: Bone calcium in female pigs after 180 days daily oral dosing. The class given is in vivo. As to the method: Active agents or placebo were administered after heat (estrus) in the luteal phase. […] All treatment groups received daily oral administration of the appropriate capsule(s) for 180 days. Daily general health observations and weekly body weight measurements were conducted for all groups. Following the 6 month administration period, calcium (parts per million (ppm) dry weight (dw)) was determined in rib and femur bone samples from pigs in each treatment group: […]

The target in series [4] is T1, ERβ. Particulars: reference compound, Estrogen ERβ; cited from earlier work.
Target sequence in this assay (Q92731 264-498 limits assumed): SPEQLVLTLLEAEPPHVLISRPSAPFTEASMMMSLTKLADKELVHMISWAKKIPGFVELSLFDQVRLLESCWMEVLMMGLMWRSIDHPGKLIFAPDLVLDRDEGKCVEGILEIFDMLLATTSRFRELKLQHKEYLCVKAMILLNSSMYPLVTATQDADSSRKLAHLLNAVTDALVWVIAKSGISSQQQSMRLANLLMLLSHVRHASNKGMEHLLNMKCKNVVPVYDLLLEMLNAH
For series [5], the target named is T1, ERβ. As to the kind of experiment: Estrogen ERβ competitive radioligand binding with [3H]estradiol. Also on record: made in house; host or cells: insect Sf9 cells. As to the method:
IC50 values were determined by non-linear least squares regression analysis. […] The Hill coefficient (nH) defines the slope of the competitive binding curve and was determined using MathIQ™ (ID Business Solutions Ltd., UK).
Estrogen ERβ • Source: Human recombinant insect Sf9 cells
Target sequence in this assay (Q92731 264-498 limits assumed): as above

The mark [6] stands for this setting: third of three separate radioligand binding studies, read-out: Receptor Binding ERβ IC50.

pIC50, pKi: −log10 of the molar value. Where two headings read alike, the source gives them in different places.

For the molecule `NCCOc1ccc(/C(=C(/Cl)c2ccccc2)c2ccccc2)cc1` [Di-de-ethyl-enclomiphene, (E)-di-desethyl Clomiphene], the “ERβ Coactivator Response Ant (antagonist)” value (“ERβ Coactivator Response Ant” below) on ERβ [1] (first of two separate studies) is on record as 87%.

Turning to `CCN(CC)CCOc1ccc(/C(=C(/Cl)c2ccccc2)c2ccccc2)cc1` [Enclomiphene, trans-clomiphene], the cycling entry in series [2] is “prevented cycling”. For the same molecule, in series [2] (Proellex 12 mg), the “cycling of vaginal bleeding” value was “stopped” and the “swelling (turgesence) of the tissue around the tail under the control of estrogen” value is listed as “inhibited the swelling”. The “ERβ Coactivator Response Ant” value on ERβ [1] (first of two separate studies) is recorded as 65%. In addition, in series [3] (female pigs, daily oral 180 days), the “effect on calcium content of bone” value was “did not affect the calcium content of bone”. For the same molecule, the “Ca (ppm dw), Mean” value in series [3] (rib and femur bone samples, female pigs n = 3, daily oral 180 days, Proellex 12 mg, Androxal 25 mg) is 139300.00 ppm dw.

Turning to `CC/C(=C(/CC)c1ccc(O)cc1)c1ccc(O)cc1` [Diethylstilbestrol], the “Historical nH” value on ERβ [4] is listed as 1.20.

For the molecule `CCNCCOc1ccc(/C(=C(/Cl)c2ccccc2)c2ccccc2)cc1` [N-Desethyl enclomiphene, (E)-desethyl Clomiphene], the pIC50 on ERβ [5] (setting [6]) is 8.95. Moreover, the “ERβ Coactivator Response Ant” value at ERβ [1] (second of two separate studies) is recorded as 74%.

In the case of `COCC(=O)[C@@]1(OC(C)=O)CC[C@H]2[C@@H]3CCC4=CC(=O)CCC4=C3[C@@H](c3ccc(N(C)C)cc3)C[C@@]21C` [Proellex, 21-methoxy-17α-acetoxy-11β-(4 N, N-dimethylaminophenyl)-19-norpregna-4,9-diene-3,20-dione], in series [2] (Proellex 12 mg), the “cycling of vaginal bleeding” value was “stopped”, the endometrial thickness result is on record as “increase in endometrial thickness” and the “swelling (turgesence) of the tissue around the tail under the control of estrogen” value is “not proellex alone inhibited the swelling”. Also, the “effect on calcium content of bone” value in series [3] (pig, in vivo, po) is on record as “did not affect the calcium content of bone”.

As to `CCN(CC)CCOc1ccc(/C(=C(/Cl)c2ccccc2)c2ccc(O)cc2)cc1` [4-OH-enclomiphene, (E)-4-OH-Clomiphene], the “nH (Hill coefficient)” value at ERβ [5] (ERβ, hum) was 1.56. Moreover, the “% Inh.” value on ERβ [5] (ERβ, hum, Conc. 0.9 nM) is reported as 67%. Besides, at ERβ [5] (ERβ, hum, Cheng-Prusoff), the pKi was 9.92. Besides, the pIC50 on ERβ [5] (ERβ, hum, additional data, read-out: IC50) is 9.24; at ERβ [5] (first of three separate radioligand binding studies, read-out: Receptor Binding ERβ IC50), 9.24; at ERβ [5] (second of three separate radioligand binding studies, read-out: Receptor Binding ERβ IC50), 9.39. For the same molecule, the “ligand preference ERα versus ERβ” value on ERβ [5] (based on binding and co-activator studies) is “better ligand for ERβ”. In addition, the “ERβ Coactivator Response Ant” value at ERβ [1] (first of two separate studies) is on record as 60%.

Take `CCNCCOc1ccc(/C(=C(/Cl)c2ccccc2)c2ccc(O)cc2)cc1` [4-OH-N-Desethyl enclomiphene, (E)-4-OH-desethyl Clomiphene]: the pIC50 on ERβ [5] (setting [6]) is 9.35. In addition, the “ERβ Coactivator Response Ant” value on ERβ [1] (second of two separate studies) is reported as 104%.

As for `CC[N+]([O-])(CC)CCOc1ccc(/C(=C(/Cl)c2ccccc2)c2ccccc2)cc1` [Enclomiphene-NO, (E)-Clomiphene-NO], on ERβ [1] (first of two separate studies), the “ERβ Coactivator Response Ant” value is recorded as 95%.

As usually defined, the pIC50 is the IC50 on a negative log10 scale, so that one unit is a factor of ten. Usually pKi stands for the negative decadic logarithm of the Ki, by convention in mol/L.
